# Source: article PMC8400955 (Pharmaceuticals, 2021)
# Values joined by “and” are separate entries in the source; they are usually repeats but may differ in a detail not shown here. Identical values can stand only once.
# Key:
# [1] = Single-dose PK and bioavailability in dogs; assay type: in vivo; details: beagle, dog, plasma; for bioavailability: PO 6 mg/kg/day vs IV 2 mg/kg/day; for AUC(0-t) / Cmax / Tmax: single dose
# Protocol: […] […] All groups had one male and one female animal. Plasma samples were collected at various timepoints, through to 24 h post-dose, and analyzed for ZB716.
# Four-to-six-week-old Sprague Dawley rats (Crl: CD (SD)) (SPF/VAF) were purchased from Beijing Vital River Laboratory Animal Technology, Co. Ltd.). Six-month-old beagle dogs were purchased from Beijing Marshall Biotechnology Co. Ltd. Animals were quarantined/acclimated for 2–6 weeks prior to dose initiation. Both Sprague Dawley rats and beagle dogs were given oral administration of ZB716 (20% PG, 5% Solutol, and 75% of 40% HP-β-CD in water) at different dose levels. After treatment with the test articles, whole blood was collected from each study animal by puncture of the tail vein (0.4 mL of whole blood from rats) and/or the peripheral vein (0.6 mL of whole blood from dogs) into tubes containing K2EDTA at each timepoint: pre-dose, and 0.5, 1, 2, 4, 8, and 24 h post-dose. The plasma samples were divided into 2 aliquots (approximately equal in volume) and stored frozen at −75 ± 15 °C within 2 h of the collection until analysis at Pharmaron, China.
# The stock solution of ZB716 (5.0 mg/mL) and ZB716-d6 (1 mg/mL) in ACN:DI Water = 1:1 was prepared and stored at −20 ± 5 °C. The desired serial concentrations of working reference analyte solutions were achieved by diluting a stock analyte solution with 50% acetonitrile (0.1% formic acid) in water solution. The bioanalytical LC–MS/MS method was validated for quantitative determination of ZB716 in Sprague Dawley rat plasma and beagle dog plasma, with acceptable selectivity, sensitivity, calibration curve, precision, and accuracy. This method is applicable for the determination of ZB716 in Sprague Dawley rat plasma and beagle dog plasma, with a lower limit of quantification of 20.0 ng/mL, and an upper limit of quantification of 10,000 ng/mL.
# Five microliters of diluted supernatant was injected into the LC–MS/MS system (Shimadzu LC30AD HPLC system with a SynergiTM 4 μm Fusion-RP 80 Å (50 × 2 mm) column using gradient elution and a Triple Quad 5500 mass spectrometer) for quantitative analysis. The mobile phases used were 0.1% formic acid in deionized water and 0.1% formic acid in acetonitrile. The pharmacokinetic parameters T1/2 (the biological half-life), Cmax (maximal concentration), Tmax (time at which Cmax is observed), and AUC (area under the plasma concentration–time curve) were calculated from the plasma concentration versus time data using WinNonlin (Phoenix^TM, version 8.1, Mountain View, CA, USA). All PK studies were conducted by Pharmaron in Beijing, China.
# CYP2C9 = CYP2C9 (Homo sapiens, UniProt P11712); assay: CYP inhibition in human liver microsomes, CYP2C9; assay type: in vitro ADME; details: HLM, marker substrate Diclofenac
# Sequence of CYP2C9 (P11712 whole entry): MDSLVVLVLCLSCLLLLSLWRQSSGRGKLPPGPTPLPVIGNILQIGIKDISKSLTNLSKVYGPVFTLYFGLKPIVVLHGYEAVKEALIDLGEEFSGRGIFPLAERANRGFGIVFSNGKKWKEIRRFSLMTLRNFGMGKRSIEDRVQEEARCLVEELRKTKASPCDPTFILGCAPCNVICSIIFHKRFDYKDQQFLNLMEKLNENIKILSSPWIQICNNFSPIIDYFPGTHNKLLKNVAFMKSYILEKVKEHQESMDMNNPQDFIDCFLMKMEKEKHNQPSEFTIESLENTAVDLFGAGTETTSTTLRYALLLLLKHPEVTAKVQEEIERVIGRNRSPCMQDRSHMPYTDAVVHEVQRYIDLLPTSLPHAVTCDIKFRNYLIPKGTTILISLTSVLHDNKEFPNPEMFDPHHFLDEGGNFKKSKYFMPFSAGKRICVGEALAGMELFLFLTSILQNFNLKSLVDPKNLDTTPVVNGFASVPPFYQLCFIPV
# Protocol: (§1) . The inhibition of CYP2B6 and 3A4 (when midazolam was used as the substrate) by ZB716 was not observed. The inhibitory potential of ZB716 on human CYP enzyme activities appears relatively low.
# (§2) The final concentrations of ZB716 in the incubation system were 0, 0.05, 0.15, 0.5, 1.5, 5, and 15 µM (final organic solvent concentration ≤ 1%). […] . […] The concentrations of the isoform-specific metabolites derived from marker substrates were measured by UPLC–MS/MS. The IC50 values were calculated from the percentages of the rate of the metabolite formation relative to non-inhibited controls vs. the concentrations of ZB716 or positive control inhibitors. All incubations were performed in triplicate. The mean of the enzyme activity (% of non-inhibited control) for each concentration was plotted against the log inhibitor concentration, and fitted to an IC50 curve.
# [2] = Metabolic stability in rat hepatocytes; assay type: in vitro ADME
# Protocol: (§3) Hepatocytes of humans (#X008001), dogs (#M00205), rats (#M00005), and mice (#M005052) were purchased from BioIVT, NY, USA. Monkey hepatocytes were procured from RILD, Shanghai, China. The metabolic stability of ZB716 in human, monkey, dog, rat and mouse hepatocytes was investigated by incubating ZB716 with human, monkey, dog, rat, and mouse hepatocytes (0.5 × 10^6 cells/mL), or with incubation medium only.
# (§4) parent disappearance vs. incubation time curve.
# (§5) Scaled-up Clint = kV/N × Scaling Factor
# (§6) metabolite formed during the reaction.
# rat hepatocytes = assay: Metabolic stability in rat hepatocytes; assay type: in vitro ADME; details: 1 μM
# Protocol: as §3, §4, §5, §6
# CYP3A4 = CYP3A4 (Homo sapiens, UniProt P08684); assay: CYP phenotyping, recombinant CYP3A4
# Sequence of CYP3A4 (P08684 whole entry): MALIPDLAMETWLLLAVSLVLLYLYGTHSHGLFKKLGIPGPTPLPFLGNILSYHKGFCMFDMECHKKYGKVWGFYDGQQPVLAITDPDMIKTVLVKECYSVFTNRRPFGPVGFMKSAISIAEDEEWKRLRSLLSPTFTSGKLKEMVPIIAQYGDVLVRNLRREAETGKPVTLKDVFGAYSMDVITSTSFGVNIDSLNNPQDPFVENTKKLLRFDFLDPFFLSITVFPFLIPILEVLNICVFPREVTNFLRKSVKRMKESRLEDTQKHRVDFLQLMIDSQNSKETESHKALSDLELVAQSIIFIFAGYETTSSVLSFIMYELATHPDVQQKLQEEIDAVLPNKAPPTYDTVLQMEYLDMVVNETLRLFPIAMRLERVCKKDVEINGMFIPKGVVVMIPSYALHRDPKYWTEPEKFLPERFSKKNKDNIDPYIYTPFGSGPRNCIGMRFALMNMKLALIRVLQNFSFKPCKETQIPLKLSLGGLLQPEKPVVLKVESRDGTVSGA
# mouse hepatocytes = assay: Metabolic stability in mouse hepatocytes; assay type: in vitro ADME; details: 1 μM
# Protocol: as §3, §4, §5, §6
# CYP2C8 = molecular target: T1, CYP2C8 (Homo sapiens, UniProt P10632); assay: CYP inhibition in human liver microsomes, CYP2C8; assay type: in vitro ADME; details: HLM, marker substrate Amodiaquine
# T1 sequence (P10632 1-490): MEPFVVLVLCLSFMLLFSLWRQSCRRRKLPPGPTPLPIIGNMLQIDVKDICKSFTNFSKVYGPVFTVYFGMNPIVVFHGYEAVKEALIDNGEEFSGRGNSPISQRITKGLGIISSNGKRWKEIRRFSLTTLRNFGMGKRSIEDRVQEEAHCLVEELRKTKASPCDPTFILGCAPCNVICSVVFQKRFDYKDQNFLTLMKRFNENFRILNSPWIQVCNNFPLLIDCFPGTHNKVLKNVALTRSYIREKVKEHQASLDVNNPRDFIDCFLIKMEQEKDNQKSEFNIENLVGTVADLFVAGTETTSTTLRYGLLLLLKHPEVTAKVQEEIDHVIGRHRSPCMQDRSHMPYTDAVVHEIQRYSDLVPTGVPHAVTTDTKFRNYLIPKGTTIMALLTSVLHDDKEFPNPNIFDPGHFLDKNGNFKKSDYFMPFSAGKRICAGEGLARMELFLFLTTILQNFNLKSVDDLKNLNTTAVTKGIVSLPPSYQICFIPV
# Protocol: as §1, §2
compound,measurement,setting,value
"C[C@]12CC[C@@H]3c4ccc(B(O)O)cc4C[C@@H](CCCCCCCCC[S+]([O-])CCCC(F)(F)C(F)(F)F)[C@H]3[C@@H]1CC[C@@H]2O (some centres unmarked) [ZB716, fulvestrant-3-boronic acid]",bioavailability,"[1]; female, F",6.74%
same,AUC(0-t),"[1]; female, IV 2 mg/kg/day, F",4310 ng·h/mL
same,Cmax,"[1]; female, IV 2 mg/kg/day, F",2710 ng/mL
same,Tmax,"[1]; female, IV 2 mg/kg/day, F",5 min
same,AUC(0-t),"[1]; female, PO 6 mg/kg/day, F",872 ng·h/mL
same,Cmax,"[1]; female, PO 6 mg/kg/day, F",213 ng/mL
same,Tmax,"[1]; female, PO 6 mg/kg/day, F",30 min
same,AUC(0-t),"[1]; female, PO 30 mg/kg/day, F",3460 ng·h/mL
same,Cmax,"[1]; female, PO 30 mg/kg/day, F",964 ng/mL
same,Tmax,"[1]; female, PO 30 mg/kg/day, F",60 min
same,AUC(0-t),"[1]; female, PO 100 mg/kg/day, F",5840 ng·h/mL
same,Cmax,"[1]; female, PO 100 mg/kg/day, F",957 ng/mL
same,Tmax,"[1]; female, PO 100 mg/kg/day, F",30 min
same,bioavailability,"[1]; male, M",6.18%
same,AUC(0-t),"[1]; male, IV 2 mg/kg/day, M",3030 ng·h/mL
same,Cmax,"[1]; male, IV 2 mg/kg/day, M",2160 ng/mL
same,Tmax,"[1]; male, IV 2 mg/kg/day, M",5 min
same,AUC(0-t),"[1]; male, PO 6 mg/kg/day, M",563 ng·h/mL
same,Cmax,"[1]; male, PO 6 mg/kg/day, M",157 ng/mL
same,Tmax,"[1]; male, PO 6 mg/kg/day, M",30 min
same,AUC(0-t),"[1]; male, PO 30 mg/kg/day, M",5520 ng·h/mL
same,Cmax,"[1]; male, PO 30 mg/kg/day, M",988 ng/mL
same,Tmax,"[1]; male, PO 30 mg/kg/day, M",240 min
same,AUC(0-t),"[1]; male, PO 100 mg/kg/day, M",7500 ng·h/mL
same,Cmax,"[1]; male, PO 100 mg/kg/day, M",1140 ng/mL
same,Tmax,"[1]; male, PO 100 mg/kg/day, M",120 min
same,IC50,CYP2C9,4.77 µM
same,half-life at 1 μM,[2]; read-out: Estimated In Vitro t1/2,28.4 ± 0.9 min
same,hepatocyte CLint at 1 μM,[2]; read-out: In Vitro Clint,48.7 ± 1.5 µL/min/1e6 cells
same,CLint scaled at 1 μM,[2]; read-out: Scaled-Up Clint,228 ± 7 mL/min/kg
same,Remaining at 120 min,rat hepatocytes,5.19 ± 0.32%
same,half-life at 2 µM,CYP3A4; human,5.91 ± 0.39 min
same,Clint,"CYP3A4; recombinant CYP3A4, 2 µM ZB716",2.35 µL/min/pmol CYP and 2.35 ± 0.15 µL/min/pmol CYP
same,Remaining at 120 min,mouse hepatocytes,6.24 ± 0.58%
same,IC50,CYP2C8,6.27 µM
